Consider six compounds from patent US10683297B2 (Sunshine Lake Pharma Co., Ltd., priority 2017, dated 2020).

For one data set, the target named is T1, JAK1 (h) (Homo sapiens, UniProt P23458).
T1 construct: purchased Millipore UK Ltd (assays performed there as a service)
Briefly: JAK1 (h) kinase assay. Conditions: [γ-33P-ATP] 10 μM or KM values; 40 minutes at room temperature. The class given is biochemical. The essentials:
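Radiometric filter-binding assay: human JAK1 incubated 40 min at room temperature in 20 mM Tris/HCl pH 7.5, 0.2 mM EDTA, 500 μM peptide substrate, 10 mM Mg acetate, with [γ-33P]ATP at 10 μM or KM. Reaction stopped with phosphoric acid; P30 filtermat scintillation counting.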

A short description of data set [1]: Compound stability in rat liver microsomes. The format is in vitro ADME. The following applies: for CLint scaled at 5 μM: liver microsomes, pH 7.4, in vivo CLint extrapolated from rat liver microsome incubation; for half-life at 5 μM: rat liver microsomes 0.5 mg protein/mL, compound 5 μM, NADPH 1.0 mM, pH 7.4, 37° C., read-out: Rat T1/2. In outline: (§1)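 Compounds (5 μM) incubated at 37 °C with human or rat liver microsomes (0.5 mg protein/mL) and 1.0 mM NADPH in 100 mM phosphate buffer pH 7.4, 0.05% DMSO, in duplicate. Sampled 0–60 min, quantified by LC/MS/MS as % of time zero; CLint extrapolated.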

A short description of data set [2]: Compound stability in human liver microsomes. The format is in vitro ADME. The following applies: for half-life at 5 μM: human liver microsomes 0.5 mg protein/mL, compound 5 μM, NADPH 1.0 mM, pH 7.4, 37° C., read-out: Human T1/2; for CLint scaled at 5 μM: liver microsomes, pH 7.4, in vivo CLint extrapolated from human liver microsome incubation. The essentials:
as §1

T1 sequence (P23458 whole entry): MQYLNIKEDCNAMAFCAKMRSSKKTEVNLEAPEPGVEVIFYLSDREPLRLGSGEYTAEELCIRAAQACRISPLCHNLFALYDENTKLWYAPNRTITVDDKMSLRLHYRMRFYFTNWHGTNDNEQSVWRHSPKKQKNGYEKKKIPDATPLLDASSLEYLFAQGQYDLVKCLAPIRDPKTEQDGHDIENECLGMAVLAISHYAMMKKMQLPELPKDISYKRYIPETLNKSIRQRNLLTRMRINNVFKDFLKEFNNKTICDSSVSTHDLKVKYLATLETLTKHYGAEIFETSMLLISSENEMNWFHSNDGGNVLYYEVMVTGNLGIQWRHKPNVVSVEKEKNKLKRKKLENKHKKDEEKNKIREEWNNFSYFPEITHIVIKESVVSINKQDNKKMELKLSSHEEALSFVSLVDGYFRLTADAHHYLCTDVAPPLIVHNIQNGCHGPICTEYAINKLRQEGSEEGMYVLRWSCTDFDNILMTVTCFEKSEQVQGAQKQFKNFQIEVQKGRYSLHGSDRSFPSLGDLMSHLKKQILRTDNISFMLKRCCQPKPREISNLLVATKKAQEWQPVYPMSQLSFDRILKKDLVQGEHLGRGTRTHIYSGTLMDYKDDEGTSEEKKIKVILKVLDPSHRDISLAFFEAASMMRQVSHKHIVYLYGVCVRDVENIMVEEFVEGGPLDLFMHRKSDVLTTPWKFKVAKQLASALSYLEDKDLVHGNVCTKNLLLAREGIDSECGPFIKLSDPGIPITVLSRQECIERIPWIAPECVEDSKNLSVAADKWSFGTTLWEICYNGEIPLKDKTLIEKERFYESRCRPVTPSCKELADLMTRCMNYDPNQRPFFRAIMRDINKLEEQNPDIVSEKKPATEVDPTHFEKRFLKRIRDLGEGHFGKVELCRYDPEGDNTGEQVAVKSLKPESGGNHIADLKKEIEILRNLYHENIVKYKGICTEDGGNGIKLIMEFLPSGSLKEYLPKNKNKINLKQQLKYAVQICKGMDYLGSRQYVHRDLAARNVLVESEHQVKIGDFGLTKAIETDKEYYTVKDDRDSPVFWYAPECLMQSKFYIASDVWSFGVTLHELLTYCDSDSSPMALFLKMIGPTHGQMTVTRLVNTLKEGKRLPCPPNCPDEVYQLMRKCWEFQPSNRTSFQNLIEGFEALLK

Turning to `CC(C)(O)Cc1cn2cc(Nc3ncc(Cl)c(NC4CCN(c5ccc(C#N)cn5)CC4)n3)ccc2n1` [Example 73, 6-(4-((5-chloro-2-((2-(2-hydroxy-2-methylpropyl)imidazo[1,2-a]pyridin-6-yl)amino)pyrimidin-4-yl)amino)piperidin-1-yl)nicotinonitrile], the midpoint of inhibition against JAK1 (h), the IC50, lay at 1 nM. For the same compound, the CLint scaled at 5 μM in data set [1] is 214 mL/min/kg; in data set [2], 41.3 mL/min/kg. Further, the half-life at 5 μM in data set [1] came out at 0.193 h; in data set [2], 0.7 h.
On to `CC(C)(O)Cc1nnc2cc(Nc3ncc(Cl)c(NC4CCN(c5ccc(C#N)cn5)CC4)n3)ccn12` [Example 74, 6-(4-((5-chloro-2-((3-(2-hydroxy-2-methylpropyl)-[1,2,4]triazolo[4,3-a]pyridin-7-yl)amino)pyrimidin-4-yl)amino)piperidin-1-yl)nicotinonitrile], for which inhibition against JAK1 (h) was half-maximal at 0.7 nM (IC50). The half-life at 5 μM in data set [1] and in data set [2] was over 1 h each time.
As for `CC(C)(O)Cc1nnc2cc(Nc3ncc(Cl)c(NC4CCN(c5ccc(C#N)nn5)CC4)n3)ccn12` [Example 75, 6-(4-((5-chloro-2-((3-(2-hydroxy-2-methylpropyl)-[1,2,4]triazolo[4,3-a]pyridin-7-yl)amino)pyrimidin-4-yl)amino)piperidin-1-yl)pyridazine-3-carbonitrile], inhibition against JAK1 (h) was half-maximal at 1 nM (IC50). The half-life at 5 μM in data set [1] and in data set [2] was over 1 h throughout.
`CC(C)(O)Cc1nc2cc(Nc3ncc(Cl)c(NC4CCN(c5ccc(C#N)nn5)CC4)n3)ccn2n1` [Example 77, 6-(4-((5-chloro-2-((2-(2-hydroxy-2-methylpropyl)-[1,2,4]triazolo[1,5-a]pyridin-7-yl)amino)pyrimidin-4-yl)amino)piperidin-1-yl)pyridazine-3-carbonitrile] registered an IC50 against JAK1 (h) of 0.7 nM. Also, in data set [1], the CLint scaled at 5 μM was 38.2 mL/min/kg and the half-life at 5 μM came out at 1.08 h. In addition, in data set [2], the half-life at 5 μM is 4.28 h and the CLint scaled at 5 μM was 6.8 mL/min/kg.
In the same order, the values of `CC(C)(O)Cc1nc2cc(Nc3ncc(Cl)c(NC4CCN(c5ccc(C#N)cn5)CC4)n3)ccn2n1` [Example 78, 6-(4-((5-chloro-2-((2-(2-hydroxy-2-methylpropyl)-[1,2,4]triazolo[1,5-a]pyridin-7-yl)amino)pyrimidin-4-yl)amino)piperidin-1-yl)nicotinonitrile] are 1 nM, 157 mL/min/kg, 0.264 h, 0.588 h and 49.3 mL/min/kg.
In the same order, the values of `CC(C)(O)Cc1nc2ccc(Nc3ncc(Cl)c(NC4CCN(c5ccc(C#N)nn5)CC4)n3)cn2n1` [Example 79, 6-(4-((5-chloro-2-((2-(2-hydroxy-2-methylpropyl)-[1,2,4]triazolo[1,5-a]pyridin-6-yl)amino)pyrimidin-4-yl)amino)piperidin-1-yl)pyridazine-3-carbonitrile] are 1 nM, 5.1 mL/min/kg, 8.09 h, 3.27 h and 8.9 mL/min/kg.

One may read the IC50 as the concentration at which inhibition is half-maximal. Broadly, the CLint scaled is the rate of metabolic loss divided by the concentration.
